The text below walks through data of patent US7799794B2, “Treatment for cardiovascular disease” (Merck Sharp & Dohme Corp., priority 2000, dated 2010).

Marks after values point to notes of the source that are not given here.

For data set [1], the system named is Sprague-Dawley rats. In words: Enalapril or L-Arginine in hyperuricemic rats on low salt diet: blood pressure (Example 4). Format: in vivo, rat. The note with it: hyperuricemic control rats, OA + low salt diet. The protocol:
Rats were placed on either low salt diet, low salt diet with 2% oxonic acid, low salt diet with oxonic acid and enalapril (1 mg/kg/d in drinking water), or low salt diet with oxonic acid and L-Arginine (1% in drinking water).
(§1) Am J Physiol 268:F1 164-76, 1995].

Data set [2] deals with Sprague-Dawley rats. In words: Allopurinol intervention or oxonic acid withdrawal in hyperuricemic rats: blood pressure (Example 3). It counts as in vivo, rat. The conditions noted are these: oxonic acid withdrawn at 7 weeks, LSD continued.
Description: (§2) Rats were placed on the low sodium diet with oxonic acid for 7 weeks, and then were matched based on uric acid level and blood pressure in various groups to either receive allopurinol, have the oxonic acid withdrawn from the diet, or continue the oxonic acid/low salt diet. A control group of six rats were placed on the lowsodium diet alone for 11 weeks. All of these rats were sacrificed at week 11.
as §1
(§3) Am J Clin Pathol 1957; 28:152.]. Serum blood urea nitrogen was measured by a standard kit (Sigma, St Louis, Mo.).

Data set [3] concerns Sprague-Dawley rats. In words: Cyclosporine nephropathy with or without oxonic acid: body weight, renal function, uric acid, CSA level (Example 5). The conditions noted are these: 7 weeks. On the procedure:
Studies were conducted in 20 adult male Sprague-Dawley rats (Simmonsen Laboratories, Gilroy, Calif., USA) weighing 200 to 250 grams. All rats were fed a low salt diet (0.125% NaCl)(Zeigler Bros, Gardners, Pa.), with water ad libitum. […] In order to induce hyperuricemia, oxonic acid 2% was added to low salt diet. Because rats have uricase, an hepatic enzyme which degrades uric acid to allantoin, the blockade of this enzyme by oxonic acid is necessary.
After 7 weeks, rats were placed in individual metabolic cages for 24-hour urine collection. The following day, rats were anesthetized with xylazine and ketamine, serum was collected for creatinine and uric acid measurements, and both kidneys were obtained for histology evaluation. Biopsies were fixed in 10% formalin, 100% ethanol or Methyl Camoy's.
Serum and urine creatinine were measured by a standard picric acid method (Sigma Diagnostics creatinine kit, St. Louis, Mo.). Serum and urine uric acid were measured by a modified carbonate-phosphotungstate method [Henry, R. J., Sobel, C., and Kim, J., A modified carbonate phosphotungstate method for the determination of uric acid and comparison with the spectophotometric uricase method. Am J Clin Pathol 1957; 28:152.]. Fractional uric acid excretion and creatinine clearance were calculated by standard formulas.
All values are expressed as mean±SD, unless otherwise stated. The differences between groups were compared with unpaired Student's t tests.

For data set [4], the system named is Sprague-Dawley rats. In words: Renal findings at 11 weeks: immunohistochemistry and BUN (Example 3). Format: in vivo, rat. The protocol: as §2, §3
(§4) Renal biopsies were fixed in Methyl-Carnoy's, 10% formalin or 100% ethanol and embedded in paraffin. The presence of uric acid crystals was evaluated by staining 4-μm ethanol-fixed sections with de Galantha and modified Von Kossa stains. Kidney tissue from rats with acute uric acid nephropathy, induced with oxonic acid and uric acid administration was used as a positive control [Stavric, B., Johnson, W. J., and Grice, H. C., Uric acid nephropathy: An experimental model, Proc. Soc. Exp. Biol. Med. 130: 512-16 (1969).]. Light microscopy was performed in 4-μm sections of Methyl-Carnoy's fixed tissue stained with periodic acid Schiff (PAS) reagent or with hematoxylin and eosin.
Methyl-Carnoy's fixed tissue sections were analyzed by indirect immunoperoxidase [Lombardi, D., Gordon , K. L., Polinsky, P., Suga, S., Schwartz, S. M., and Johnson, R. J. Salt sensitive hypertension develops after transient exposure to angiotensin II. Hypertension 33:1013-1019, 1999] staining with the following primary antibodies: OP199, a goat polyclonal antibody against osteopontin (OPN)(gift of C. Giachelli, Univ of Wash., Seattle); ED-1, a monoclonal antibody to rat monocytes and macrophages (Serotec); goat antihuman type III collagen (Southern Biotechnology Associates Inc, Birminghan Ala.); and anti-renin, a mouse antibody to human renin (Sanofi Recherche, Montpellier, France). Sections were incubated with a secondary antibody followed by horseradish peroxidase-conjugated avidin D (Vector Laboratories, Burlingame, Calif.), diaminobenzidine (Sigma) with or without nickel chloride as a chromogen, and counsterstained with methyl green.
NOS1 was detected on formalin fixed tissue sections with a rabbit anti-rat neuronal nitric oxide synthase (Transduction Laboratories, Lexington, Ky.), followed by a biotinylated secondary antibody, diaminobenzidine with nickel chloride and counterstained with nuclear fast red.
All quantification was performed blinded. The tubular expression of osteopontin (OPN), which is a sensitive marker of tubulointerstitial injury, was calculated as the percent of renal cortex occupied by OPN-positive tubules [Lombardi, D., Gordon, K. L., Polinsky, P., Suga, S., Schwartz, S. M., and Johnson, R. J. Salt sensitive hypertension develops after transient exposure to angiotensin II. Hypertension 33:1013-1019, 1999]. Utilizing computer-assisted image analysis software (Optimas V6.2, Media Cybernetics, Silver Springs, Md.) and digitized images, the percent of area occupied by OPN positive tubules per 4 mm^2 field at a magnification of 50× was measured and the mean percent area calculated for each biopsy. The interstitial deposition of collagen type III was calculated as the % of renal cortex occupied by collagen III, noted by immunostaining, by computer image analysis. The mean number of interstitial macrophages (ED-1+cells) in each biopsy was calculated in a blinded manner by counting the total number of positive interstitial cortical cells in 20 sequentially selected 0.25 mm^2 grids at 200× magnification. Renin expression was quantified by the number of glomeruli with positive staining for juxtaglomerular renin using a minimum of 100 glomeruli in each biopsy as previously described [Eng, E., et al., Renal proliferation and phenotypic changes in rats with two-kidney, one-clip Goldblatt hypertension. […]

In data set [5] the test system is Sprague-Dawley rats. In words: Mild hyperuricemia model: 2% oxonic acid on normal salt diet (Example 1). It counts as in vivo, rat. On the procedure:
All studies utilized adult male Sprague-Dawley rats (Simonsen Laboratories, Gilroy Calif.)(200-250 g).
Rats were placed on a normal salt (NaCl 0.26%) diet with or without 2% oxonic acid (Ziegler Bros, Gardners, Pa.) added to the diet and rats were sacrificed at week 7.
Am J Physiol 268:F1164-76, 1995].
as §3, §4

Turning to `O=C(O)c1nc(=O)[nH]c(=O)[nH]1` [oxonic acid], the “increase in systolic blood pressure over the 7 week dietary period” value in the data set with Sprague-Dawley rats [1] is reported as “approximately 20 mm Hg”. Further, the “blood pressure and serum uric acid in hypertensive, hyperuricemic rats” value in the data set on Sprague-Dawley rats [2] is listed as “reduction in the blood pressure in association with a fall in serum uric acid values”. The “urinary uric acid” value is recorded as 5.06 ± 2.81^a mg/day in the data set with Sprague-Dawley rats [3] (24-hour urine, vehicle 2.19 ± 0.66) and “increased two-fold” in the data set with Sprague-Dawley rats [5] (2% oxonic acid in the diet). Also, the “Serum Uric Acid” value with Sprague-Dawley rats [3] (mean±SD, vehicle 1.62 ± 0.31) is given as 4.08 ± 1.22^a mg/dl. This compound had a Weight with Sprague-Dawley rats [3] (mean±SD, vehicle 422.2 ± 31.2) of 421.2 ± 28.8 grams. Also, in the data set on Sprague-Dawley rats [3] (vehicle 0.12 ± 0.06), the “FE urate (fractional excretion of uric acid)” value is recorded as 0.11 ± 0.14. The “Urate/creatinine (urine)” value in the data set with Sprague-Dawley rats [3] (vehicle 0.20 ± 0.08) amounted to 0.35 ± 0.27. For the same compound, in the data set with Sprague-Dawley rats [3] (vehicle 0.94 ± 0.24), the “Serum Creatinine” value is 0.88 ± 0.19 mg/dL. The “Creatnine Clearance” value in the data set with Sprague-Dawley rats [3] (vehicle 1.39 ± 0.73) amounted to 1.94 ± 0.73 mL/min. In addition, the BUN in the data set with Sprague-Dawley rats [4] (OA withdrawal at 7 weeks) was 18.8 ± 0.8 mg/dL; in the data set with Sprague-Dawley rats [4] (low NaCl diet, allopurinol added at 7 weeks, control 16.6 ± 0.9), 24.1 ± 1.7 mg/dL. The “ED-1 (macrophages)” value in the data set on Sprague-Dawley rats [4] (OA withdrawal at 7 weeks) came out at 33.0 ± 1.6 cells/mm2; in the data set on Sprague-Dawley rats [4] (low NaCl diet, allopurinol added at 7 weeks, control 27.8 ± 1.4), 36.5 ± 1.4 cells/mm2. Further, the NOS-1 in the data set with Sprague-Dawley rats [4] (OA withdrawal at 7 weeks) was 83.1 ± 10.8 positive cells/100 glomeruli; in the data set with Sprague-Dawley rats [4] (low NaCl diet, allopurinol added at 7 weeks, control 104.4 ± 11.5) it was 65.6 ± 7.1 positive cells/100 glomeruli. Besides, the OPN in the data set on Sprague-Dawley rats [4] (OA withdrawal at 7 weeks) amounted to 1.08 ± 0.06 % increase; in the data set with Sprague-Dawley rats [4] (low NaCl diet, allopurinol added at 7 weeks, control 0.7 ± 0.08), 1.33 ± 0.14 % increase. The Renin worked out at 50.5 ± 2.1 % positive JGA with Sprague-Dawley rats [4] (OA withdrawal at 7 weeks) and 58.4 ± 0.8 % positive JGA in the data set with Sprague-Dawley rats [4] (low NaCl diet, allopurinol added at 7 weeks, control 41.0 ± 1.9). Besides, the “Type III collagen” value in the data set on Sprague-Dawley rats [4] (OA withdrawal at 7 weeks) amounted to 8.9 ± 1.6 %; with Sprague-Dawley rats [4] (low NaCl diet, allopurinol added at 7 weeks, control 7.2 ± 0.6), 13.9 ± 0.6 %. Moreover, the “body weight at the end of the study” value in the data set with Sprague-Dawley rats [5] (2% oxonic acid diet, normal salt diet, 7 weeks, control 394±18) amounted to 367.6 ± 17 g. Further, the “special stains for uric acid crystals in kidney” value with Sprague-Dawley rats [5] (2% oxonic acid, 7 weeks) is “negative”.
